Source: patent publication US20210154161A1, “MODIFIED-RELEASE BUCILLAMINE COMPOSITIONS, KITS, AND METHODS FOR TREATING CYSTINURIA, ARTHRITIS, GOUT, AND RELATED DISORDERS” (ALTIBIO, INC., priority 2017, published 2021)

Key:
[1] = cystinuria patients; cited from earlier work
[2] = cited from earlier work
[3] = Short- and long-term stability of bucillamine in Beagle dog plasma; type: in vitro ADME
Description: (§1) Stability Testing: Finally, short-term and long-term stability of bucillamine in Beagle dog plasma, pre-crashed plasma (plasma supernatant), and urine were assessed using two bucillamine concentrations (50 ng/mL or 500 ng/mL) under each of the following two conditions: (1) storage on the bench top for 4 hours and (2) frozen at −80° C. for up to one month. Samples were considered stable if their concentrations were within ±20% of nominal. These samples met acceptable criteria for stability and results are presented below, in Tables 5, 6, and 7, showing the % bucillamine remaining in Beagle dog plasma (Table 5), plasma supernatant (Table 6), and urine (Table 7).

[4] = Short- and long-term stability of bucillamine in Beagle dog plasma supernatant (pre-crashed plasma); type: in vitro ADME
Description: (§2) For the analysis, analytical stock solutions (1.00 mg/mL of the free drug) were prepared in DMSO. Also, three standards for use in the analysis were prepared in each of the following media, as follows: (1) in male Beagle plasma containing sodium heparin as the anticoagulant; (2) in Beagle plasma that had previously been treated with acetonitrile to precipitate and remove plasma proteins (the […] supernatant was diluted with acetonitrile (3:1 acetonitrile:plasma supernatant) to give pre-crashed Beagle plasma supernatant); and (3) in 10× diluted Beagle urine, diluted in water. The term “pre-crashed plasma” refers to plasma supernatant, obtained in the centrifugation step described above.
as §1

[5] = Short- and long-term stability of bucillamine in Beagle dog urine; type: in vitro ADME
Description: as §2
Samples were considered stable if their concentrations were within ±20% of nominal. These samples met acceptable criteria for stability and results are presented below, in Tables 5, 6, and 7, showing the % bucillamine remaining in Beagle dog plasma (Table 5), plasma supernatant (Table 6), and urine (Table 7).

[6] = Total bucillamine plasma concentration after oral or intraduodenal dosing regimens; type: in vivo, male Beagle dogs; details: n=3 dogs
Description: (§3) The objective of this study was to evaluate total and free plasma bucillamine, and urinary bucillamine, in male Beagle dogs following oral and intraduodenal administration of bucillamine, according to various dose regimens, to determine whether different regimens, simulating modified release in accordance with the present invention, would improve drug pharmacokinetics. Specifically, bucillamine formulations were administered to deliver 30 mg/kg per dog via single or multiple doses divided over a 12-hour period; and blood and urine samples then collected at different times post-dose.
(§4) Bucillamine formulations were administered to provide 30 mg/kg per dog according to five different dosage regimens (Leg 1, Leg 2, Leg 3, Leg 4, and Leg 5), as set forth in the table below. Leg 2, Leg 3, and Leg 4 (also referred to as Q6H, Q3H, and Q2H, respectively) were designed to simulate modified-release formulations, in accordance with certain embodiments of the present invention. Following administration, blood and urine samples were collected at the time points, or over the time intervals, also as indicated below.
(§5) Preparation of Dosing Formulations: Capsules for Legs 1-5 were prepared and filled on the day of dosing, as follows. For Legs 1, 2, and 5, bucillamine was dry mixed with avicel and mannitol to make a 40:30:30 mixture of bucillamine to avicel to mannitol, respectively; for study Legs 3 and 4, a 20:40:40 mixture of bucillamine to avicel to mannitol, respectively, was prepared. The dry mixes were custom filled with the appropriate amount of powder to deliver the specified doses to each dog based, on their respective body weights.
(§6) Animal Dosing and Sample Collection: This non-clinical study followed established practices and standard operating procedures of Absorption Systems and Absorption Systems Inc., as well as the study protocol. Study groups each included three dogs. The dogs were housed one per cage. For Legs 1-4, the dogs were fasted for at least six hours prior to each administration of the formulation. For Legs 1-4, food was given approximately ten hours post initial dosing. Animals had free access to water throughout the study. For Leg 5, the dogs were fasted for at least sixteen hours prior to each administration of the formulation. For Leg 5, food was given approximately eight hours post initial dosing. Animals had free access to water throughout the study. Additionally, each dog received a 60 mL subcutaneous injection of saline (a 30 mL injection, into each two different sites) approximately 30 minutes prior to dosing, for hydration.
(§7) Intraduodenal (ID) administration: Animals were anesthetized by a slow IV infusion of Propofol (6-10 mg/kg), or with an intramuscular injection of a cocktail containing ketamine (approximately 10-20 mg/kg), diazepam (3 mg/kg), and acepromazine (0.05 mg/kg) given IM about 5-10 minutes before intubation. Once animals were confirmed adequately anesthetized, they were intubated and maintained using isoflurane (approximately 1-5% in oxygen 1 to 4 L/min) as necessary until dosing was complete. Formulations were administered into the proximal duodenum via endoscopic guidance to verify the dosing site. The endoscope first was maneuvered into the pyloric sphincter with camera visualization of the proximal duodenum. Once there was confirmation that the endoscope was placed between the pylorus and proximal duodenum, the test article was delivered to the proximal duodenum followed by a 5 mL flush. […]

[7] = Free bucillamine plasma concentration after oral or intraduodenal dosing regimens; type: in vivo, male Beagle dogs; details: for maximum plasma concentrations of free bucillamine (average): n=3 dogs
Description: as §3, §4, §5, §6
as §7, with “flush. Upon completion of the dosing, the animals were taken off the isoflurane and allowed to recover from anesthesia. Time points began upon completion of the entire dose procedure. Following each blood sampling time point, 15 mL of water was given to each dog via syringe. Approximately 30 minutes prior to the 0 hour blood collection, each dog received a subcutaneous injection of 60 mL of saline (a 30 mL injection into each of two different sites) for hydration.” for “flush.”

[8] = Bucillamine urinary recovery after oral or intraduodenal dosing regimens; type: in vivo, male Beagle dogs; details: for % of the dose (unchanged drug) found in urine, on average: n=3 dogs
Description: as §3, §4, §5, §6
as §7, with “flush. Upon completion of the dosing, the animals were taken off the isoflurane and allowed to recover from anesthesia. Time points began upon completion of the entire dose procedure. Following each blood sampling time point, 15 mL of water was given to each dog via syringe. Approximately 30 minutes prior to the 0 hour blood collection, each dog received a subcutaneous injection of 60 mL of saline (a 30 mL injection into each of two different sites) for hydration.” for “flush.”

[9] = Example 3: cystine stone formation in cystinuria patients, about 1 week; type: in vivo, human; details: Days 2-8, enterically-coated bucillamine oral 100 mg x 8 or x 12 times/day
Description: This Example describes a study to confirm the improved efficacy of reducing cystine stone formation in cystinuria patients who develop at least one stone per week using standard Thiola® dosing. Study Design: […] The patients are dosed as follows: Day 1: No treatment; an X-ray is taken of the kidney and bladder. Days 2-8: To simulate extended release, enterically-coated bucillamine is orally administered at either 100 mg x 8 times/day (i.e., every three hours) or 100 mg x 12 times/day (i.e., every two hours). A simple enteric coating is used that avoids release in the stomach. Also, 24 hour urine cystine capacity is measured, that is, all urine over a 24-hour period, starting from the time of the first dose, is collected and used to measure urinary cystine concentration. Day 8: X-ray examination of Day 1 is repeated.

[10] = Example 5: urine cystine in cystinuria dogs, simulated extended-release bucillamine; type: in vivo; details: enterically-coated bucillamine 8 times/day, same total daily dosage
Description: This Example describes a study to confirm the feasibility of reducing cystine levels in the urine of cystinuria dogs receiving more frequent and lower doses of bucillamine, in a dosing schedule designed to simulate the extended release formulations of the present invention, compared to urine cystine levels in cystinuria dogs receiving non-coated bucillamine. Study Design: Subject dogs are dosed as follows: Day 1: […] Day 2: Repeat Day 1 Day 3: No treatment Day 4: No treatment Day 5: To simulate extended-release, enterically-coated bucillamine is orally administered at lower dose, 8 times/day (i.e., every three hours), to provide a total daily dosage equal to that used in Days 1 and 2. A simple enteric coating is used that avoids release in the stomach. Also, 24 hour urine cystine capacity is measured, that is, all urine over a 24-hour period, starting from the time of the first dose, is collected and used to measure urinary cystine concentration. Day 6: Repeat Day 5

[11] = majority of patients; 1,800 mg bucillamine over 7 days; 72 hours post-dose; without rescue drug; cited from earlier work
[12] = cited from earlier work; remark: listed apart in the source
[13] = cited from earlier work; remark: listed apart in the source
[14] = 50 ng/mL (low), -80 C freezer for 1 week
[15] = 50 ng/mL (low), bench top (RT) for 4 hours
[16] = 500 ng/mL (high), -80 C freezer for 1 week
[17] = 500 ng/mL (high), bench top (RT) for 4 hours
[18] = Leg 1 (Q12H): PO, single 30 mg/kg dose
[19] = Leg 2: PO 30 mg/kg as two 15 mg/kg doses at 0 and 6 h
[20] = Leg 3 (Q3H): PO 30 mg/kg as four 7.5 mg/kg doses at 0, 3, 6, 9 h
[21] = Leg 4: PO 30 mg/kg as six 5 mg/kg doses at 0, 2, 4, 6, 8, 10 h
[22] = Leg 5: ID, single 30 mg/kg dose

CC(C)(S)[C@@H](N)C(=O)O [D-penicillamine]
patients with severe side effects / who cannot tolerate the drug [1]: 50-70% | solubility of the di-sulfide complex formed, relative to cystine [2]: 50 times

CC(C)(S)C(=O)N[C@@H](CS)C(=O)O [bucillamine, N-(2-mercapto-2-methylpropionyl)-L-cysteine]
% Bucillamine Remaining in Beagle Dog Plasma [3, 14]: 114% | % Bucillamine Remaining in Beagle Dog Plasma ([3]; 50 ng/mL (low), -80 C freezer for 2 weeks): 108% | % Bucillamine Remaining in Beagle Dog Plasma ([3]; 50 ng/mL (low), -80 C freezer for 4 weeks): 114% | % Bucillamine Remaining in Beagle Dog Plasma [3, 15]: 110% | % Bucillamine Remaining in Beagle Dog Plasma [3, 16]: 96.4% | % Bucillamine Remaining in Beagle Dog Plasma ([3]; 500 ng/mL (high), -80 C freezer for 2 weeks): 97.3% | % Bucillamine Remaining in Beagle Dog Plasma ([3]; 500 ng/mL (high), -80 C freezer for 4 weeks): 107% | % Bucillamine Remaining in Beagle Dog Plasma [3, 17]: 96.9% | % Bucillamine Remaining in Beagle Dog Plasma Supernatant [4, 14]: 94.3% | % Bucillamine Remaining in Beagle Dog Plasma Supernatant ([4]; 50 ng/mL (low), -80 C freezer for 2 week): 99.1% | % Bucillamine Remaining in Beagle Dog Plasma Supernatant ([4]; 50 ng/mL (low), -80 C freezer for 4 week): 107% | % Bucillamine Remaining in Beagle Dog Plasma Supernatant [4, 15]: 105% | % Bucillamine Remaining in Beagle Dog Plasma Supernatant [4, 16]: 97.2% | % Bucillamine Remaining in Beagle Dog Plasma Supernatant ([4]; 500 ng/mL (high), -80 C freezer for 2 week): 110% | % Bucillamine Remaining in Beagle Dog Plasma Supernatant ([4]; 500 ng/mL (high), -80 C freezer for 4 week): 119% | % Bucillamine Remaining in Beagle Dog Plasma Supernatant [4, 17]: 117% | % Bucillamine Remaining in Beagle Dog Urine ([5]; High (2500 ng/mL), -80 C freezer for 1 week): 102% | % Bucillamine Remaining in Beagle Dog Urine ([5]; High (2500 ng/mL), -80 C freezer for 2 week): 101% | % Bucillamine Remaining in Beagle Dog Urine ([5]; High (2500 ng/mL), -80 C freezer for 4 week): 96.3% | % Bucillamine Remaining in Beagle Dog Urine ([5]; High (2500 ng/mL), bench top (RT) for 4 hours): 102% | % Bucillamine Remaining in Beagle Dog Urine ([5]; Low (250 ng/mL), -80 C freezer for 1 week): 97.7% | % Bucillamine Remaining in Beagle Dog Urine ([5]; Low (250 ng/mL), -80 C freezer for 2 week): 90.9% | % Bucillamine Remaining in Beagle Dog Urine ([5]; Low (250 ng/mL), -80 C freezer for 4 week): 88.9% | % Bucillamine Remaining in Beagle Dog Urine ([5]; Low (250 ng/mL), bench top (RT) for 4 hours): 93.7% | maximum plasma concentrations of total bucillamine (average) [6, 18]: 24400 ± 8253 ng/mL | maximum plasma concentrations of total bucillamine (average) [6, 19]: 33533 ± 2139 ng/mL | maximum plasma concentrations of total bucillamine (average) [6, 20]: 25133 ± 3500 ng/mL | maximum plasma concentrations of total bucillamine (average) [6, 21]: 23800 ± 819 ng/mL | maximum plasma concentrations of total bucillamine (average) ([6]; Leg 5 (Q12H): ID, single 30 mg/kg dose): 19940 ± 11015 ng/mL | time at which maximum plasma concentrations of free bucillamine were observed [7, 18]: 2 hours post dosing | maximum plasma concentrations of free bucillamine (average) [7, 18]: 2437 ± 728 ng/mL | maximum plasma concentrations of free bucillamine (average) [7, 19]: 3957 ± 1226 ng/mL | maximum plasma concentrations of free bucillamine (average) [7, 20]: 4327 ± 1127 ng/mL | maximum plasma concentrations of free bucillamine (average) [7, 21]: 1820 ± 471 ng/mL | maximum plasma concentrations of free bucillamine (average) [7, 22]: 1187 ± 656 ng/mL | % of the dose (unchanged drug) found in urine, on average ([8]; Leg 1: PO, single 30 mg/kg dose): 57.3±25.8% | % of the dose (unchanged drug) found in urine, on average [8, 19]: 54.5±6.63% | % of the dose (unchanged drug) found in urine, on average [8, 20]: 25.8±14.0% | % of the dose (unchanged drug) found in urine, on average [8, 21]: 16.1±5.65% | % of the dose (unchanged drug) found in urine, on average [8, 22]: 20.2±7.51% | share of the drug recovered in urine excreted within the first 4 hours ([8]; Q12H schedule, PO single 30 mg/kg dose, FIG. 22, n=2 dogs): 80% | additional cystine stones on X-ray of Day 8 compared to Day 1 [9]: no additional stones | urine cystine levels over Days 5-6 compared with Days 1-2 of uncoated (immediate-release) dosing [10]: consistently lower | reduction in target joint pain scores from baseline [11]: at least 50%

CC(S)C(=O)NCC(=O)O (stereo not drawn) [tiopronin, alpha-mercaptopropionylglycine]
time of primary urine excretion wave after oral administration ([12]; immediate-release tiopronin, oral): 3 to 4 h | time after administration at which urine excretion of free tiopronin and mixed-sulfide tiopronin mostly occurs ([12]; in vivo): 2 to 4 h | free tiopronin excreted in urine within 2 hours of administration ([12]; within 2 hours of Thiola administration): ≤ 95% | cases/patients in which the drug is discontinued ([13]; due to adverse reactions, need for frequent dosing, poor efficacy): about 30% | cystinuria patients failed by the medication (continue forming stones) ([13]; human, in vivo): 85% | patients who achieve and maintain therapeutic success ([13]; human, in vivo): 15% | period of effectiveness in reducing cystine urine levels ([13]; human, in vivo): 2 to 4 h
